Measurements published in PubChem BioAssay AID1963975 (Molecular Pharmacology Branch, DTP, NCI, 2024).

Test system: 624824-186-R-J2-PDC multicell spheroids, viability
Experiment: Anticancer human tumor 624824-186-R-J2-PDC patient-derived colon adenocarcinoma cell line growth inhibition [PI3K]
Conditions: for IC50: curve of first compound; for viability, T/C: stronger effect = lower value; active means viability on the fitted dose curve at most 10% of control; inactive means the rest
Outline: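 High-throughput combination screen: PI3K inhibitors crossed with targeted small molecules on complex spheroids of tumor cells, HUVEC and MSCs at 37 degrees C, 5% CO2. Top concentration was at or near clinical Cmax (otherwise 10 microM), with half-log decrements.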

[1] = second compound 0.00316 µM, first compound 0.0316 µM
[2] = second compound 0.00316 µM, first compound 0.1 µM
[3] = second compound 0.01 µM, first compound 0.0316 µM
[4] = second compound 0.01 µM, first compound 0.1 µM
[5] = second compound 0.0316 µM, first compound 0.0316 µM
[6] = second compound 0.0316 µM, first compound 0.1 µM
[7] = second compound 0.1 µM, first compound 0.0316 µM
[8] = second compound 0.1 µM, first compound 0.1 µM
[9] = second compound 0.316 µM, first compound 0.0316 µM
[10] = second compound 0.316 µM, first compound 0.1 µM
[11] = second compound 1 µM, first compound 0.0316 µM
[12] = second compound 1 µM, first compound 0.1 µM
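Further: spheroids exposed to agents for 7 days before viability read.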
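Wherever viability, T/C is given: 100% = DMSO vehicle treated spheroids.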

CC(C)n1nc(-c2ccc3oc(N)nc3c2)c2c(N)ncnc21 + COc1c(OCCCN2CCOCC2)ccc2c3n(c(=NC(=O)c4cnc(N)nc4)nc12)CCN3
> 0.1 µM: IC50 (second compound 0.00316 µM) | IC50 (second compound 0.01 µM) | IC50 (second compound 0.0316 µM) | IC50 (second compound 0.1 µM) | IC50 (second compound 1 µM)
inactive: viability, T/C (second compound 0.00316 µM, first compound 0.000316 µM) 82.8% | viability, T/C (second compound 0.00316 µM, first compound 0.001 µM) 95.9% | viability, T/C (second compound 0.00316 µM, first compound 0.00316 µM) 82.4% | viability, T/C (second compound 0.00316 µM, first compound 0.01 µM) 99.5% | viability, T/C [1] 84% | viability, T/C [2] 70.1% | viability, T/C (second compound 0.01 µM, first compound 0.000316 µM) 104% | viability, T/C (second compound 0.01 µM, first compound 0.001 µM) 83.2% | viability, T/C (second compound 0.01 µM, first compound 0.00316 µM) 93.2% | viability, T/C (second compound 0.01 µM, first compound 0.01 µM) 86.7% | viability, T/C [3] 80.7% | viability, T/C [4] 68.9% | viability, T/C (second compound 0.0316 µM, first compound 0.000316 µM) 90.3% | viability, T/C (second compound 0.0316 µM, first compound 0.001 µM) 78.8% | viability, T/C (second compound 0.0316 µM, first compound 0.00316 µM) 81.4% | viability, T/C (second compound 0.0316 µM, first compound 0.01 µM) 69.6% | viability, T/C [5] 69.9% | viability, T/C [6] 54.5% | viability, T/C (second compound 0.1 µM, first compound 0.000316 µM) 70.1% | viability, T/C (second compound 0.1 µM, first compound 0.001 µM) 77.3% | viability, T/C (second compound 0.1 µM, first compound 0.00316 µM) 58.5% | viability, T/C (second compound 0.1 µM, first compound 0.01 µM) 57.3% | viability, T/C [7] 58.3% | viability, T/C [8] 49.7% | viability, T/C (second compound 0.316 µM, first compound 0.000316 µM) 70.6% | viability, T/C (second compound 0.316 µM, first compound 0.001 µM) 60.7% | viability, T/C (second compound 0.316 µM, first compound 0.00316 µM) 60.7% | viability, T/C (second compound 0.316 µM, first compound 0.01 µM) 59.1% | viability, T/C [9] 53.7% | viability, T/C [10] 47.8% | viability, T/C (second compound 1 µM, first compound 0.000316 µM) 64.6% | viability, T/C (second compound 1 µM, first compound 0.001 µM) 52.7% | viability, T/C (second compound 1 µM, first compound 0.00316 µM) 55% | viability, T/C (second compound 1 µM, first compound 0.01 µM) 61.2% | viability, T/C [11] 56.1% | viability, T/C [12] 52%
0.0753 µM: IC50 (second compound 0.316 µM)

CC1(C)CCC(CN2CCN(c3ccc(C(=O)NS(=O)(=O)c4ccc(NCC5CCOCC5)c([N+](=O)[O-])c4)c(Oc4cnc5[nH]ccc5c4)c3)CC2)=C(c2ccc(Cl)cc2)C1 + COc1c(OCCCN2CCOCC2)ccc2c3n(c(=NC(=O)c4cnc(N)nc4)nc12)CCN3
> 10 µM: IC50 (second compound 0.00316 µM) | IC50 (second compound 0.01 µM) | IC50 (second compound 0.0316 µM)
4.7 µM: IC50 (second compound 1 µM)
inactive: viability, T/C [1] 78.7% | viability, T/C [2] 82.4% | viability, T/C (second compound 0.00316 µM, first compound 0.316 µM) 81.6% | viability, T/C (second compound 0.00316 µM, first compound 1 µM) 98% | viability, T/C (second compound 0.00316 µM, first compound 3.16 µM) 70.5% | viability, T/C (second compound 0.00316 µM, first compound 10 µM) 61% | viability, T/C [3] 99% | viability, T/C [4] 83.5% | viability, T/C (second compound 0.01 µM, first compound 0.316 µM) 83.1% | viability, T/C (second compound 0.01 µM, first compound 1 µM) 94.9% | viability, T/C (second compound 0.01 µM, first compound 3.16 µM) 78.2% | viability, T/C (second compound 0.01 µM, first compound 10 µM) 57.5% | viability, T/C [5] 84.3% | viability, T/C [6] 90.5% | viability, T/C (second compound 0.0316 µM, first compound 0.316 µM) 82.6% | viability, T/C (second compound 0.0316 µM, first compound 1 µM) 90.7% | viability, T/C (second compound 0.0316 µM, first compound 3.16 µM) 78.7% | viability, T/C (second compound 0.0316 µM, first compound 10 µM) 50.2% | viability, T/C [7] 69% | viability, T/C [8] 76.8% | viability, T/C (second compound 0.1 µM, first compound 0.316 µM) 84.8% | viability, T/C (second compound 0.1 µM, first compound 1 µM) 78.4% | viability, T/C (second compound 0.1 µM, first compound 3.16 µM) 73.1% | viability, T/C (second compound 0.1 µM, first compound 10 µM) 38.2% | viability, T/C [9] 60% | viability, T/C [10] 65.7% | viability, T/C (second compound 0.316 µM, first compound 0.316 µM) 72.1% | viability, T/C (second compound 0.316 µM, first compound 1 µM) 67.9% | viability, T/C (second compound 0.316 µM, first compound 3.16 µM) 60.5% | viability, T/C (second compound 0.316 µM, first compound 10 µM) 28.2% | viability, T/C [11] 64.7% | viability, T/C [12] 62.3% | viability, T/C (second compound 1 µM, first compound 0.316 µM) 63.2% | viability, T/C (second compound 1 µM, first compound 1 µM) 61.4% | viability, T/C (second compound 1 µM, first compound 3.16 µM) 64.7% | viability, T/C (second compound 1 µM, first compound 10 µM) 24.8%
4.68 µM: IC50 (second compound 0.316 µM)
6.81 µM: IC50 (second compound 0.1 µM)
